# Experimental data as given in patent US20240226165A1, “Methods of Producing Improved Immune Cell Populations” (Prescient Therapeutics Ltd, priority 2021, published 2024).
# “Also recorded” adds a separate entry of the source.
# Assays:
# human CAR-T-cells [1] = assay: Mass spectrometry of cellular proteome; type: cell-based; details: treatment of PBMCs
# From the text: At each time point, cells were collected and washed three times with cold DPBS before cell lysis for global proteomic analysis.
# Cells were homogenised/solubilised containing protease and phosphatase inhibitor (HALT) by tip-probe sonication, quantified, normalized and reduced (dithiothreitol, DTT), alkylated (iodoacetamide), before Sera-Mag Speed Bead-based protein digestion with LysC (enzyme:substrate 1:100, Wako Pure Chemical Industries) trypsin (enzyme:substrate 1:50). […] Peptides desalted (SDB-RPS Stage-Tips), and analysed for global cellular proteome.
# Spectra acquired in data dependent acquisition on an Orbitrap Q-Exactive HF-X mass spectrometer coupled to an Easy-nLC 1200 (Thermo Fisher Scientific) ultra-high pressure liquid chromatography (UHPLC) pump. […] The most intense MS1 ions were selected for MS2 analysis, fragmented by higher-energy collisional dissociation with normalized collision energy of 33. Precursors were filtered according to charge state≥2, AGC set at 1e5 for MS/MS, with monoisotopic peak used.
# Mass spectra were pre-processed and processed using MaxQuant (1.6.14). […]
# For further data analysis, the normalized intensities were converted into log 2 ratios of the intensities over the median intensity measured for each protein across each sample group, with statistical analyses performed using Student's T-test or ANOVA (p-value<0.05 was considered significant). […]
# [2] = Immune subsets in spleen and tumour, MC-38-hHer2 model; type: in vivo, mouse; details: TCN-P as adjuvant in the presence of CAR-T-cells
# From the text: Blood of mice was collected directly into EDTA-containing tube via submandibular bleeding at day 8-9 post-treatment. At the experimental endpoint, various organs including tumour, draining lymph node (dLN) and spleen were collected immediately after euthanasia. Single cell suspension from the dLN and spleen were achieved by processing these organs through a 70 μm filter. For splenocytes, red blood cells were lysed with ACK lysis buffer. Solid tumours were manually sliced and digested with DMEM containing 1 mg mL^−1 type IV collagenase and 0.02 mg mL^−1 DNAse for 30 mins at 37° C. in a rocking incubation at 120 r.p.m. Digestion was neutralised with DMEM and processed through a 70 μm filter and resuspended in either FACS buffer or complete RPMI media. […]
# Cells were blocked for 15 mins at room temperature with Fc receptor block (clone 2.4G2 of the hybridoma supernatant diluted 1:50 with FACS buffer). […] The number of target T-cell population was calculated by using: the number of input beads in the sample/bead events×events of targeted population.
# MC-38-hHer2 = MC-38-hHer2 colon cancer model in hHer2 transgenic mice; type: in vivo, mouse
# Experimental: C57BL/6J wildtype (WT) and human Her2 (hHer2) transgenic mouse lines were all in bred and maintained at the Peter MacCallum Cancer Centre (Victoria, Australia). Mice between the age of 6 and 16 weeks were gender-matched and randomised into different treatment groups.
# Her2 transgenic recipients were either injected subcutaneously with 2.5×10^5 of MC38-hHer2 or 2.5×10^5 of E0771-hHer2 into the mammary fat pad with. Once the tumours become palpable and they were measured using a manual caliper and tumour area calculated in millimetres squared (mm^2, length×width). On day 6-7 post-tumour inoculation, tumour-bearing Her2+ mice were ranodmised to have an average tumour size of 20 mm^2, 20×10^6 of CAR-transduced T-cells were adoptively transferred into these recipients. 50 000 U of IL-2 was administered via intraperitoneal injection 5 times over the next 2 days. Tumour sizes were measured and monitored every 2-3 days until their tumour size exceed 120 mm^2 or until the tumour-bearing mice reached a designated experimental time point.
# human CAR-T-cells [3] = assay: Flow cytometry phenotyping of human CAR-T-cells from PBMC donors; type: cell-based
# Experimental: Human PBMCs were extracted from buffy packs (Australian Red Cross Blood Service). They were activated using anti-CD3 antibody (OKT3) for 2 days before transduction for 48 hours, all in the presence of IL-2.
# Buffy coats from three donors were processed to isolate PBMCs, where 50 million PBMCs were cultured for 2 days in the presence of media containing anti-CD3 antibodies (OKT3, 1.5 μg per mL) and recombinant IL-2 (600 U/mL). […] Samples were collected either 24 or 72 hours later.
# murine T-cells = details: extremely low concentrations
# From the text: (§1) Mouse splenocytes were activated using CD3/CD28 antibodies and cultured in the presence of recombinant IL-2 and IL-7 for 24 hrs prior to transduction with CAR-T vectors.
# (§2) Cells were stained using fluorochrome labelled antibodies against CD4, CD8, CD44, CD62L to phenotype the murine CAR-T-cells following manufacturing. Human CAR-T-cells were phenotyped using fluorochrome-conjugated antibodies against CD4, CD8, CD45RA, CD45RO, CD44, CD62L, CCR7, CD27, PD-1 and CD69. A fixable live/dead dye was used to distinguish between live or dead cells.
# murine CAR-T-cells = assay: Flow cytometry phenotyping of murine CAR-T-cells after manufacturing; type: cell-based, mouse
# From the text: as §1, §2
# Splenocytes from C57BL/6 donor mice were activated with 1 μg mL^−1 anti-CD3, 1 μg mL-1 anti-CD28 in the presence of IL-2 and 200 pg mL-1 IL-7 for 1 day then ficoll gradient treatment. Cells were transduced in plates coated with 1 μg mL of retronectin using supernatant produced from a GP+86 LXSN-anti-Her2 CAR packaging cell line. The transduced cells were then expanded in complete RPMI with the same concentration of IL-2 and IL-7 with or without 5 μM of PTX-200. Fresh IL-2 and IL-7 in complete media were added to all CAR-T-cells 2 days post-transduction.
smiles,measurement,setting,value
"CN1N=C(N)c2cn([C@@H]3O[C@H](COP(=O)(O)O)[C@@H](O)[C@H]3O)c3ncnc1c23 [TCN-P, triciribine 5′-monophosphate]",enrichment of proteins associated with interferon signalling and anti-viral activity,human CAR-T-cells [1],increased enrichment
same,proteins associated with metabolism and RNA processing,human CAR-T-cells [1],enriched
same,reduction of intratumoral Tregs,[2],50%
same,"tumour control / tumour killing, tumour sizes until day 14",MC-38-hHer2; 25 mg/kg TCN-P adjuvant every 3 days following Her2-targeting CAR-T administration,significantly improved
same,median survival duration,"MC-38-hHer2; TCN-P 25 mg/Kg, 20×10^6 CAR-T-cells, control group 15 days",20 days
same,anti-tumour effect (tumour growth),"MC-38-hHer2; TCN-P alone, 5, 25 or 50 mg/Kg i.p. every 3-4 days",dosage dependent anti-tumour effect; also recorded: strong anti-tumour effect
same,effector T (TE) cells in CD8+ CAR-T-cells,"human CAR-T-cells [3]; 24 hrs, n=3 donors, control/vehicle 8%",5%
same,"Central memory T (TCM) cells (CD45RO+ CD62L+) in CD8+ CAR-T-cells, mean","human CAR-T-cells [3]; 24 hrs, n=3 donors, control/vehicle 11%",17%
same,Central memory T (TCM) cells (CD45RO+ CD62L+) in CD8+ CAR-T-cells,"human CAR-T-cells [3]; 3 days, after 24 hour treatment, n=3, control/vehicle 9%",16%
same,effector T (TE) cells in CD8+ CAR-T-cells,"human CAR-T-cells [3]; 3 days, after 24 hour treatment, n=3, control/vehicle 35%",23%
same,"CCR7+ TCM, mean","human CAR-T-cells [3]; CD8+ CAR-T, pre-treatment, from 9%",16%
same,CCR7+ TE,"human CAR-T-cells [3]; CD8+ CAR-T, pre-treatment, from 35%",23%
same,TCM or TE phenotype of CD4+ CAR-T-cells,"human CAR-T-cells [3]; pre-treatment, 24 hrs and 3 days",did not have any effect
same,TREG proportions (CD4+CD25+FoxP3+) in CD4+ transduced CAR-T-cells,"human CAR-T-cells [3]; pre-treatment, low concentrations",reduced
same,tolerability by transduced T-cells,murine T-cells,well-tolerated
same,ratio of CD4:CD8 T-cells,"murine CAR-T-cells; TCN-P conditioning during CAR-T manufacturing, prior to administration",unchanged
same,central memory CD8+ CAR-T-cells (CD44+ CD62L+),murine CAR-T-cells; TCN-P preconditioning during CAR-T manufacturing,significant enrichment
